Experimental data from US12545637B2, “Extrahepatic targeted cationic lipid compound with high efficiency and low toxicity and its composition” (BEIJING YOUCARE KECHUANG PHARMACEUTICAL TECHNOLOGY CO., LTD., priority 2023, dated 2026).

Assays:
[1] = Detection of encapsulation efficiency, drug loading concentration and total RNA concentration (RiboGreen); type: physicochemical; settings: for Drug loading concentration / Encapsulation efficiency / Total RNA concentration: LNP formulation prepared from the cationic lipid; for encapsulation efficiency higher than ALC-0315: difference vs ALC-0315; for encapsulation efficiency higher than HIMA: difference vs HIMA (HHMA); for encapsulation efficiency higher than SM-102: difference vs SM-102; for encapsulation efficiency higher than YK-009: difference vs YK-009; for encapsulation efficiency higher than compound 21: difference vs compound 21; for encapsulation efficiency higher than compound 23: difference vs compound 23; for drug loading concentration, times that of ALC-0315 / total RNA concentration, times that of ALC-0315: ratio vs ALC-0315; for drug loading concentration, times that of HIMA / total RNA concentration, times that of HIMA: ratio vs HIMA (HHMA); for drug loading concentration, times that of SM-102 / total RNA concentration, times that of SM-102: ratio vs SM-102; for drug loading concentration, times that of YK-009 / total RNA concentration, times that of YK-009: ratio vs YK-009; for drug loading concentration, times that of compound 21 / total RNA concentration, times that of compound 21: ratio vs compound 21; for drug loading concentration, times that of compound 23 / total RNA concentration, times that of compound 23: ratio vs compound 23
Procedure, shortened: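 Samples were diluted in 1×TE to about […], combined with TE and 0.1% Triton X-100 buffers, and held at 37 °C for 10 minutes before dye addition.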

female BALB/C mice = test: In vivo imaging in mice of Fluc-mRNA LNP formulations (mRNA expression and duration); settings: for average radiation intensity, 6 h / average radiation intensity, 24 h / average radiation intensity, 48 h / average radiation intensity, 7 d: Fluc-mRNA LNP intramuscular; for average radiation intensity, 6 h: 6 h after administration; for average radiation intensity, 24 h: 24 h after administration; for average radiation intensity, 48 h: 48 h after administration; for average radiation intensity, 7 d: 7 d after administration
Procedure, shortened: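 Female BALB/C mice (4-6 weeks, 17-19 g) received LNP carrying […] Fluc-mRNA intramuscularly. At 6h, 24 h, 48h and 7d, fluorescent imaging substrate was given intraperitoneally and after 5 minutes average radiance, as a measure of expressed protein, was imaged on an IVIS Spectrum system.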

293T cells [2] = test: Fluorescent detection of Fluc-mRNA (cell transfection efficiency of LNP formulations); type: cell-based; settings: for Relative light unit (RLU): LNP with 0.3 μg Fluc-mRNA, 96-well plate, 24 hours; for cell transfection efficiency, times that of YK-415: ratio vs YK-415; for cell transfection efficiency, times that of YK-417: ratio vs YK-417; for cell transfection efficiency, times that of YK-418: ratio vs YK-418; for cell transfection efficiency, times that of YK-424: ratio vs YK-424; for RLU value, times that of compound 21: ratio vs compound 21; for RLU value, times that of compound 23: ratio vs compound 23
293T cells [3] = test: as above; type: cell-based; settings: for RLU value, times that of ALC-0315: ratio vs ALC-0315; for RLU value, times that of HHMA: ratio vs HHMA; for RLU value, times that of Lipofectamine 3000: ratio vs Lipofectamine 3000; for RLU value, times that of YK-009: ratio vs YK-009; for RLU value, times that of YK-405: ratio vs YK-405; for RLU value, times that of YK-406: ratio vs YK-406; for RLU value, times that of YK-408: ratio vs YK-408; for RLU value, times that of YK-409: ratio vs YK-409; for RLU value, times that of YK-410: ratio vs YK-410; for cell transfection efficiency, times that of YK-412: ratio vs YK-412; for cell transfection efficiency, times that of YK-413: ratio vs YK-413; for cell transfection efficiency, times that of YK-414: ratio vs YK-414; for cell transfection efficiency, times that of YK-416: ratio vs YK-416; for cell transfection efficiency, times that of YK-419: ratio vs YK-419; for cell transfection efficiency, times that of YK-420: ratio vs YK-420; for cell transfection efficiency, times that of YK-421: ratio vs YK-421

## CCCCCCCCC(CCCCCCCC)C(=O)OCCCCCCN(CCO)CCN(CCO)CCCCCCOC(=O)C(CCCCCCCC)CCCCCCCC [YK-402]
[1]
  Drug loading concentration: 37.67 µg/mL
  Encapsulation efficiency: 91.0%
  Total RNA concentration: 40.09 µg/mL
  encapsulation efficiency higher than ALC-0315: 27.7%
  encapsulation efficiency higher than HIMA: 30.8%
  encapsulation efficiency higher than SM-102: 28.1%
  encapsulation efficiency higher than YK-009: 27.6%
  encapsulation efficiency higher than compound 21: 33.0%
  encapsulation efficiency higher than compound 23: 34.8%
  drug loading concentration, times that of ALC-0315: 1.40
  total RNA concentration, times that of ALC-0315: 1.06
  drug loading concentration, times that of HIMA: 1.15
  total RNA concentration, times that of HIMA: 1.10
  drug loading concentration, times that of SM-102: 1.42
  total RNA concentration, times that of SM-102: 1.11
  drug loading concentration, times that of YK-009: 1.37
  total RNA concentration, times that of YK-009: 1.04
  drug loading concentration, times that of compound 21: 1.71
  total RNA concentration, times that of compound 21: 1.39
  drug loading concentration, times that of compound 23: 1.88
  total RNA concentration, times that of compound 23: 1.29
Female BALB/C mice; 6 h
  average radiation intensity, times that of ALC-0315: 1.75
  average radiation intensity, times that of HHMA: 2.22
  average radiation intensity, times that of SM-102: 2.13
  average radiation intensity, times that of compound 21: 2.45
  average radiation intensity, times that of compound 23: 2.53
  expression amount in mice, times that of YK-415: 12.48
  expression amount in mice, times that of YK-417: 24.31
  mRNA expression in mice, times that of YK-411: 251.30
Female BALB/C mice; 24 h
  average radiation intensity, times that of ALC-0315: 4.21
  average radiation intensity, times that of HHMA: 6.65
  average radiation intensity, times that of SM-102: 6.47
  average radiation intensity, times that of compound 21: 7.19
  average radiation intensity, times that of compound 23: 7.91
  expression amount in mice, times that of YK-415: 12.38
  expression amount in mice, times that of YK-417: 39.95
  mRNA expression in mice, times that of YK-411: 394.86
Female BALB/C mice; 48 h
  average radiation intensity, times that of ALC-0315: 8.62
  average radiation intensity, times that of HHMA: 10.37
  average radiation intensity, times that of SM-102: 10.52
  average radiation intensity, times that of compound 21: 10.96
  average radiation intensity, times that of compound 23: 10.50
  expression amount in mice, times that of YK-415: 21.90
  expression amount in mice, times that of YK-417: 49.08
  mRNA expression in mice, times that of YK-411: 354.61
Female BALB/C mice; 7 d
  average radiation intensity, times that of ALC-0315: 1.42
  average radiation intensity, times that of HHMA: 1.67
  average radiation intensity, times that of SM-102: 1.48
  average radiation intensity, times that of compound 21: 1.56
  average radiation intensity, times that of compound 23: 1.63
  expression amount in mice, times that of YK-415: 2.46
  expression amount in mice, times that of YK-417: 4.35
  mRNA expression in mice, times that of YK-411: 20.71
Female BALB/C mice
  average radiation intensity, 6 h: 1470100
  average radiation intensity, 24 h: 798408
  average radiation intensity, 48 h: 345740
  average radiation intensity, 7 d: 9940
293T cells [2]
  Relative light unit (RLU): 5044102 RLU
  cell transfection efficiency, times that of YK-415: 16.93
  cell transfection efficiency, times that of YK-417: 43.01
  cell transfection efficiency, times that of YK-418: 45.34
  cell transfection efficiency, times that of YK-424: 1.75
  RLU value, times that of compound 21: 3.34
  RLU value, times that of compound 23: 3.60
293T cells [3]
  RLU value, times that of ALC-0315: 2.30
  RLU value, times that of HHMA: 2.43
  RLU value, times that of Lipofectamine 3000: 4.20
  RLU value, times that of YK-009: 0.98
  RLU value, times that of YK-405: 1.58
  RLU value, times that of YK-406: 64.46
  RLU value, times that of YK-408: 3.42
  RLU value, times that of YK-409: 7.53
  RLU value, times that of YK-410: 12.37
  cell transfection efficiency, times that of YK-412: 1.50
  cell transfection efficiency, times that of YK-413: 3.66
  cell transfection efficiency, times that of YK-414: 11.36
  cell transfection efficiency, times that of YK-416: 1.27
  cell transfection efficiency, times that of YK-419: 1.59
  cell transfection efficiency, times that of YK-420: 1.25
  cell transfection efficiency, times that of YK-421: 10.81

## CCCCCCCCC(CCCCCCCC)OC(=O)CCCCCCCN(CCO)CCN(CCO)CCCCCCCC(=O)OC(CCCCCCCC)CCCCCCCC [YK-403, di(heptadecan-9-yl) 8, 8′-(ethane-1,2-diyl-bis((2-hydroxyethyl)azanediyl))dioctanoate]
[1]
  Drug loading concentration: 34.21 µg/mL
  Encapsulation efficiency: 87.9%
  Total RNA concentration: 40.53 µg/mL
  encapsulation efficiency higher than ALC-0315: 24.6%
  encapsulation efficiency higher than HIMA: 27.7%
  encapsulation efficiency higher than SM-102: 25.0%
  encapsulation efficiency higher than YK-009: 24.4%
  encapsulation efficiency higher than compound 21: 29.9%
  encapsulation efficiency higher than compound 23: 31.7%
  drug loading concentration, times that of ALC-0315: 1.27
  total RNA concentration, times that of ALC-0315: 1.07
  drug loading concentration, times that of HIMA: 1.05
  total RNA concentration, times that of HIMA: 1.11
  drug loading concentration, times that of SM-102: 1.29
  total RNA concentration, times that of SM-102: 1.12
  drug loading concentration, times that of YK-009: 1.24
  total RNA concentration, times that of YK-009: 1.05
  drug loading concentration, times that of compound 21: 1.56
  total RNA concentration, times that of compound 21: 1.40
  drug loading concentration, times that of compound 23: 1.71
  total RNA concentration, times that of compound 23: 1.31
Female BALB/C mice; 6 h
  average radiation intensity, times that of ALC-0315: 1.89
  average radiation intensity, times that of HHMA: 2.40
  average radiation intensity, times that of SM-102: 2.30
  average radiation intensity, times that of compound 21: 2.65
  average radiation intensity, times that of compound 23: 2.73
  expression amount in mice, times that of YK-415: 13.48
  expression amount in mice, times that of YK-417: 26.26
  mRNA expression in mice, times that of YK-411: 271.52
Female BALB/C mice; 24 h
  average radiation intensity, times that of ALC-0315: 4.51
  average radiation intensity, times that of HHMA: 7.13
  average radiation intensity, times that of SM-102: 6.93
  average radiation intensity, times that of compound 21: 7.70
  average radiation intensity, times that of compound 23: 8.47
  expression amount in mice, times that of YK-415: 13.26
  expression amount in mice, times that of YK-417: 42.79
  mRNA expression in mice, times that of YK-411: 422.95
Female BALB/C mice; 48 h
  average radiation intensity, times that of ALC-0315: 7.69
  average radiation intensity, times that of HHMA: 9.25
  average radiation intensity, times that of SM-102: 9.39
  average radiation intensity, times that of compound 21: 9.78
  average radiation intensity, times that of compound 23: 9.37
  expression amount in mice, times that of YK-415: 19.54
  expression amount in mice, times that of YK-417: 43.80
  mRNA expression in mice, times that of YK-411: 316.45
Female BALB/C mice; 7 d
  average radiation intensity, times that of ALC-0315: 1.41
  average radiation intensity, times that of HHMA: 1.65
  average radiation intensity, times that of SM-102: 1.47
  average radiation intensity, times that of compound 21: 1.55
  average radiation intensity, times that of compound 23: 1.61
  expression amount in mice, times that of YK-415: 2.44
  expression amount in mice, times that of YK-417: 4.32
  mRNA expression in mice, times that of YK-411: 20.54
Female BALB/C mice
  average radiation intensity, 6 h: 1588400
  average radiation intensity, 24 h: 855204
  average radiation intensity, 48 h: 308540
  average radiation intensity, 7 d: 9857
293T cells [2]
  Relative light unit (RLU): 5249304 RLU
  cell transfection efficiency, times that of YK-415: 17.61
  cell transfection efficiency, times that of YK-417: 44.76
  cell transfection efficiency, times that of YK-418: 47.18
  cell transfection efficiency, times that of YK-424: 1.82
  RLU value, times that of compound 21: 3.47
  RLU value, times that of compound 23: 3.74
293T cells [3]
  RLU value, times that of ALC-0315: 2.40
  RLU value, times that of HHMA: 2.52
  RLU value, times that of Lipofectamine 3000: 4.37
  RLU value, times that of YK-009: 1.02
  RLU value, times that of YK-405: 1.64
  RLU value, times that of YK-406: 67.08
  RLU value, times that of YK-408: 3.56
  RLU value, times that of YK-409: 7.84
  RLU value, times that of YK-410: 12.87
  cell transfection efficiency, times that of YK-412: 1.56
  cell transfection efficiency, times that of YK-413: 3.81
  cell transfection efficiency, times that of YK-414: 11.82
  cell transfection efficiency, times that of YK-416: 1.32
  cell transfection efficiency, times that of YK-419: 1.66
  cell transfection efficiency, times that of YK-420: 1.31
  cell transfection efficiency, times that of YK-421: 11.25
